Earlier results as cited in patent US20040097484A1 (priority 2002, published 2004).

Details: in vivo

- effective plasma concentration duration (sufficient elimination half-life): at least 4 hours
Structure (SMILES): COc1ccc2c3c1O[C@H]1C[C@@H](O)C=C[C@@]31CCN(C)C2 [galantamine, 4a, 5,9, 10, 11, 12-hexahydro-3-methoxy-11-methyl-6H-benzofuro [3a, 3,2-e][2] benzazepin-6-ol]
